Source: US11844795B2, “Combination therapy for cancer treatment” (Ipsen Biopharm Ltd., priority 2015, dated 2023)
Read-outs that look alike come from different tables or passages of the source.

Legend:
[1] = system: CFPAC-1 pancreatic cancer cells; assay: % cell number over time, SN-38 with PARP inhibitors; assay type: cell-based; settings: SN-38 at 2 nM
cancer cells = assay: Active range based on XTC008
PAR = settings: Table 2B, unit inferred; cited from earlier work
[2] = system: small cell lung cancer (SCLC), pancreatic cancer and breast cancer cell lines; assay: Growth inhibition, SN-38 with PARP inhibitors; assay type: cell-based; settings: 2 nM SN-38
HCC38 = assay: Cell survival (CellTiter-Glo) after SN-38 and/or PARP inhibitor; assay type: cell-based; settings: HCC38, single agent; for IC50: Homo sapiens, read-out: IC50 log10 (converted)
Procedure: (§1) Cells were plated at 1000 cells/well and then incubated for 24 hours. […] The plates were then allowed to incubate for 72 hours period. After the 72 hour incubation period the media was removed and cell viability was determined using the CellTiter-Glo® cell viability assay (Promega, Madison Wis.) according to the product instructions.

SUM149PT = assay: as above; assay type: cell-based; settings: for IC50: Homo sapiens
Procedure: as §1

BT20 = assay: as above; assay type: cell-based; settings: for IC50: Homo sapiens
Procedure: as §1

HCC1954 = assay: as above; assay type: cell-based; settings: HCC1954, single agent
Procedure: as §1

BT549 = assay: as above; assay type: cell-based; settings: for IC50: Homo sapiens
Procedure: as §1

SUM159PT = assay: as above; assay type: cell-based; settings: for IC50: Homo sapiens, SUM-159-PT
Procedure: as §1

[3] = system: DMS-114 small cell lung cancer cells; assay: % cell number over time, SN-38 with PARP inhibitors; assay type: cell-based; settings: SN-38 at 2 nM; DMS-114 SCLC cells
[4] = system: NCI-H1048 small cell lung cancer cells; assay: as above; assay type: cell-based; settings: SN-38 at 2 nM; NCI-H1048 SCLC cells
PARP-DNA complexes = settings: compared with veliparib; cited from earlier work
HCC1806 = assay: Cell survival (CellTiter-Glo) after SN-38 and/or PARP inhibitor; assay type: cell-based; settings: Exp. 1, single agent
Procedure: as §1

HCC1187 = assay: as above; assay type: cell-based; settings: for IC50: Homo sapiens
Procedure: as §1

human plasma proteins = settings: cited from earlier work
[5] = system: C33A cervical cancer xenograft; assay: C33A cervical cancer xenograft model; settings: liver, spleen, colon, plasma versus tumors
HCC70 = assay: Cell survival (CellTiter-Glo) after SN-38 and/or PARP inhibitor; assay type: cell-based; settings: Exp. 2, single agent
Procedure: as §1

SKBR3 = assay: as above; assay type: cell-based; settings: Exp. 4, single agent
Procedure: as §1

HT-29 = assay: In vitro SN-38 effect on cell line (GI50); assay type: cell-based; settings: HT-29, in vitro
[6] = system: HT-29 colorectal cancer (CRC) tumor xenograft; assay: Tumor SN-38 and tumor response in HT-29 xenograft-bearing mice; assay type: in vivo
Procedure: The duration of tumor exposure to the topoisomerase 1 inhibitor SN-38 above a threshold minimum concentration (e.g., 120 nM) correlated with antitumor activity of the liposomal irinotecan. […] For example, FIG. 13B depicts tumor content of SN-38 in multiple murine cervical cancer models. […] Levels of SN-38 of 120 nM were identified as the SN-38 tumor concentration required to yield tumor response.

tankyrase-1 = tankyrase-1 (Homo sapiens, UniProt O95271); settings: cell-free assays; cited from earlier work
[7] = read-out: IC50 log10 (μM) (converted)

tankyrase-1, sequence (O95271 whole entry, species assumed): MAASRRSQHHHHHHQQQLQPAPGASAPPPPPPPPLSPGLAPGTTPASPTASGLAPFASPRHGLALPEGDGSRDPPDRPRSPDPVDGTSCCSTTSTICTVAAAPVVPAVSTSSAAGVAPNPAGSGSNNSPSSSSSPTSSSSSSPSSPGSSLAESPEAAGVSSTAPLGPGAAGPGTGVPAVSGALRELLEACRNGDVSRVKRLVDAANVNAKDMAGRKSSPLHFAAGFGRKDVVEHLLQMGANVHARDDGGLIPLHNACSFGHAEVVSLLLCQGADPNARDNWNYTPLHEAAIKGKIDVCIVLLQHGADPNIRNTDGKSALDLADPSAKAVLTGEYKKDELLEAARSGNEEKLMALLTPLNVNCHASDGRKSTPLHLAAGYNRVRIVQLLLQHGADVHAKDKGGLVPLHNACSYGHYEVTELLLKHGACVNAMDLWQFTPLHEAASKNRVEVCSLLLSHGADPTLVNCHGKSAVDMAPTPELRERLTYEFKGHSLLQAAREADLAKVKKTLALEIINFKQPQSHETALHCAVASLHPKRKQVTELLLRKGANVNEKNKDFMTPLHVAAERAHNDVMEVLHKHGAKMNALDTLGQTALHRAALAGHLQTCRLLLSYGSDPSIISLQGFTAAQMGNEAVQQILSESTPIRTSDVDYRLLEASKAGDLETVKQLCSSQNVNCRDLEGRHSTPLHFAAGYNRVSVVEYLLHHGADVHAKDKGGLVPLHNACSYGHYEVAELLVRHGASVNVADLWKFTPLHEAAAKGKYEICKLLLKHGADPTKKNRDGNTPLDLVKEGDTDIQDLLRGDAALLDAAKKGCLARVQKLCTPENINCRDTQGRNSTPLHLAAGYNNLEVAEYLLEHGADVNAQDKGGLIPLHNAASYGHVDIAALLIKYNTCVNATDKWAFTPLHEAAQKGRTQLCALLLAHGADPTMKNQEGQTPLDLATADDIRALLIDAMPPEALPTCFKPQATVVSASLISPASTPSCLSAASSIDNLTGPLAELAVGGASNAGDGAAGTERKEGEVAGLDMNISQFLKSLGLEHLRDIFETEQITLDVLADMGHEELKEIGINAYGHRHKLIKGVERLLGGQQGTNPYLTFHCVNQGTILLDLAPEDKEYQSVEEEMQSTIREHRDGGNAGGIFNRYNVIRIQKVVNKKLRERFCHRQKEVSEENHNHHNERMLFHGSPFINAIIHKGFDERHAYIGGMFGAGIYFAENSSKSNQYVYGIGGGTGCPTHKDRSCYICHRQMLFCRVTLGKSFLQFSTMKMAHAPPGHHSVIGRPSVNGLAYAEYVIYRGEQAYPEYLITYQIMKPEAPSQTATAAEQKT

CNCc1ccc(-c2[nH]c3cc(F)cc4c3c2CCNC4=O)cc1 [Rucaparib]
effect of combination with SN-38 [1]: Additive/synergistic effects
Active Range based on XTC008 (cancer cells; (Panc)): 1 to 100 nM
EC50 (PAR): 0.0047 µM
growth inhibition of the cancer cells in combination with SN-38 [2]: additive/synergistic growth inhibition
Estimated tumor range (Estimated tumor range): <6 µM
Maximum Kill Percent (HCC38; Exp. 3): 87%
IC50 (HCC38; Exp. 3): 0.851 µM
Maximum Kill Percent (SUM149PT; Exp. 3, single agent): 99%
IC50 (SUM149PT; Exp. 3, single agent, read-out: IC50 log10 (converted)): 47.9 µM
Maximum Kill Percent (BT20; BT20, Exp. 3, single agent): 100%
IC50 (BT20; BT-20, BT20, Exp. 3, single agent, read-out: IC50 log10 (converted)): 18.6 µM
Maximum Kill Percent (HCC1954; Exp. 3): 100%
IC50 (HCC1954; Homo sapiens, Exp. 3, read-out: IC50 log10 (converted)): 39.8 µM
Maximum Kill Percent (BT549; BT549, Exp. 3, single agent): 100%
IC50 (BT549; BT-549, BT549, Exp. 3, single agent, read-out: IC50 log10 (converted)): 56.2 µM
IC50 (SUM159PT; SUM159PT, Exp. 3, single agent, read-out: IC50 log10 (converted)): 0.851 µM
Maximum Kill Percent (SUM159PT; SUM159PT, Exp. 3, single agent): 97%
effect of combination with SN-38 [3]: Additive/synergistic effects
sensitivity of cells to combination with SN-38 [4]: very sensitive

NC(=O)c1cccc2cn(-c3ccc([C@@H]4CCCNC4)cc3)nc12 [Niraparib]
potency at PARP trapping (PARP-DNA complexes): much more potent at PARP trapping than veliparib
Maximum Kill Percent (HCC38; Exp. 1): 100%
IC50 (HCC38; Exp. 1): 17 µM
Maximum Kill Percent (BT20; BT20, Exp. 1, single agent): 100%
IC50 (BT20; BT-20, BT20, Exp. 1, single agent, read-out: IC50 log10 (converted)): 138 µM
Maximum Kill Percent (BT549; BT549, Exp. 1, single agent): 100%
IC50 (BT549; BT-549, BT549, Exp. 1, single agent, read-out: IC50 log10 (converted)): 107 µM
Maximum Kill Percent (HCC1806): 100%
IC50 (HCC1806; Homo sapiens, read-out: IC50 log10 (converted)): 18.6 µM
Maximum Kill Percent (HCC1187; HCC1187, Exp. 1, single agent): 98%
IC50 (HCC1187; HCC1187, Exp. 1, single agent, read-out: IC50 log10 (converted)): 129 µM
IC50 (SUM159PT; SUM159PT, Exp. 1, single agent, read-out: IC50 log10 (converted)): 2.24 µM
Maximum Kill Percent (SUM159PT; SUM159PT, Exp. 1, single agent): 97%

CCc1c2c(nc3ccc(O)cc13)-c1cc3c(c(=O)n1C2)COC(=O)[C@]3(O)CC [SN-38]
Active Range based on XTC008 (cancer cells): 1 to 50 nM
plasma protein binding (human plasma proteins): approximately 95%
differential tissue levels at 24 and 72 hours [5]: cleared faster from the liver, spleen, colon, and plasma, than from tumors
Estimated tumor range (Estimated tumor range; (398)): 0.003 to 0.163 µM
Estimated tumor range (Estimated tumor range; IRI): IRI < 200 nM
IC50 log10 (μM) (HCC38; Exp. 1): −2.80 log10 (μM)
Maximum Kill Percent (HCC38; Exp. 1): 96%
IC50 log10 (μM) (HCC38; Exp. 3): −2.89 log10 (μM)
Maximum Kill Percent (HCC38; Exp. 3): 92%
IC50 log10 (μM) (HCC38; Exp. 4): −2.75 log10 (μM)
Maximum Kill Percent (HCC38; Exp. 4): 92%
IC50 log10 (μM) (SUM149PT; Exp. 2, single agent): 0.24 log10 (μM)
Maximum Kill Percent (SUM149PT; Exp. 2, single agent): 96%
IC50 log10 (μM) (SUM149PT; Exp. 3, single agent): 0.27 log10 (μM)
Maximum Kill Percent (SUM149PT; Exp. 3, single agent): 95%
IC50 log10 (μM) (BT20; BT20, Exp. 1, single agent): −0.18 log10 (μM)
Maximum Kill Percent (BT20; BT20, Exp. 1, single agent): 100%
IC50 log10 (μM) (BT20; BT20, Exp. 2, single agent): −0.69 log10 (μM)
Maximum Kill Percent (BT20; BT20, Exp. 2, single agent): 100%
IC50 log10 (μM) (BT20; BT20, Exp. 3, single agent): −0.37 log10 (μM)
Maximum Kill Percent (BT20; BT20, Exp. 3, single agent): 100%
IC50 log10 (μM) (BT20; BT20, Exp. 4, single agent): −0.24 log10 (μM)
Maximum Kill Percent (BT20; BT20, Exp. 4, single agent): 100%
IC50 log10 (μM) (HCC1954; Exp. 3): −0.97 log10 (μM)
Maximum Kill Percent (HCC1954; Exp. 3): 94%
IC50 log10 (μM) (HCC1954; Exp. 4): −0.65 log10 (μM)
Maximum Kill Percent (HCC1954; Exp. 4): 100%
IC50 log10 (μM) (HCC70): −0.07 log10 (μM)
Maximum Kill Percent (HCC70): 97%
IC50 log10 (μM) (BT549; BT549, Exp. 1, single agent): −0.10 log10 (μM)
Maximum Kill Percent (BT549; BT549, Exp. 1, single agent): 95%
IC50 log10 (μM) (BT549; BT549, Exp. 2, single agent): −0.04 log10 (μM)
Maximum Kill Percent (BT549; BT549, Exp. 2, single agent): 93%
IC50 log10 (μM) (BT549; BT549, Exp. 3, single agent): −0.05 log10 (μM)
Maximum Kill Percent (BT549; BT549, Exp. 3, single agent): 94%
IC50 log10 (μM) (HCC1806): −2.08 log10 (μM)
Maximum Kill Percent (HCC1806): 93%
IC50 log10 (μM) (HCC1187; HCC1187, Exp. 1, single agent): −0.68 log10 (μM)
Maximum Kill Percent (HCC1187; HCC1187, Exp. 1, single agent): 90%
IC50 log10 (μM) (HCC1187; HCC1187, Exp. 2, single agent): −0.64 log10 (μM)
Maximum Kill Percent (HCC1187; HCC1187, Exp. 2, single agent): 100%
IC50 log10 (μM) (HCC1187; HCC1187, Exp. 4, single agent): −0.98 log10 (μM)
Maximum Kill Percent (HCC1187; HCC1187, Exp. 4, single agent): 88%
IC50 log10 (μM) (SKBR3): −1.38 log10 (μM)
Maximum Kill Percent (SKBR3): 88%
IC50 log10 (μM) (SUM159PT; SUM159PT, Exp. 1, single agent): −2.35 log10 (μM)
Maximum Kill Percent (SUM159PT; SUM159PT, Exp. 1, single agent): 97%
IC50 log10 (μM) (SUM159PT; SUM159PT, Exp. 2, single agent): −2.39 log10 (μM)
Maximum Kill Percent (SUM159PT; SUM159PT, Exp. 2, single agent): 97%
IC50 log10 (μM) (SUM159PT; SUM159PT, Exp. 3, single agent): −2.66 log10 (μM)
Maximum Kill Percent (SUM159PT; SUM159PT, Exp. 3, single agent): 99%
IC50 log10 (μM) (SUM159PT; SUM159PT, Exp. 4, single agent): −2.33 log10 (μM)
Maximum Kill Percent (SUM159PT; SUM159PT, Exp. 4, single agent): 96%
GI50 (HT-29): ~0.06 µM
SN-38 tumor concentration required to yield tumor response [6]: 120 nM

O=C(c1cc(Cc2n[nH]c(=O)c3ccccc23)ccc1F)N1CCN(C(=O)C2CC2)CC1 [Olaparib]
effect of combination with SN-38 [1]: Additive/synergistic effects
less effective against tankyrase-1 than against PARP 1/2 (tankyrase-1): 300 times
EC50 (PAR): 0.0036 µM
growth inhibition of the cancer cells in combination with SN-38 [2]: additive/synergistic growth inhibition
Estimated tumor range (Estimated tumor range): 8 µM
IC50 (SUM149PT; [7]): 251 µM
IC50 (BT20; BT-20, read-out: IC50 log10 (μM) (converted)): 17.4 µM
IC50 (BT549; BT-549, read-out: IC50 log10 (μM) (converted)): 110 µM
IC50 (HCC1187; HCC1187, read-out: IC50 log10 (μM) (converted)): 257 µM
IC50 (SUM159PT; [7]): 1.51 µM
effect of combination with SN-38 [3]: Additive/synergistic effects
sensitivity of cells to combination with SN-38 [4]: very sensitive
